The numbers were not newly measured in US20060270629A1, “Methanocarba cycloalkyl nucleoside analogues” (Govt of the U.S.A., represented by the Secretary, Dept of …, priority 2000, published 2006), which cites them from elsewhere.

Series [1] deals with human and turkey P2Y1 receptors. The conditions noted are these: competitive antagonist; cited from earlier work.
Series [2] addresses T1, P2X1 receptors (Homo sapiens, UniProt P51575).
T1 sequence (P51575 1-399): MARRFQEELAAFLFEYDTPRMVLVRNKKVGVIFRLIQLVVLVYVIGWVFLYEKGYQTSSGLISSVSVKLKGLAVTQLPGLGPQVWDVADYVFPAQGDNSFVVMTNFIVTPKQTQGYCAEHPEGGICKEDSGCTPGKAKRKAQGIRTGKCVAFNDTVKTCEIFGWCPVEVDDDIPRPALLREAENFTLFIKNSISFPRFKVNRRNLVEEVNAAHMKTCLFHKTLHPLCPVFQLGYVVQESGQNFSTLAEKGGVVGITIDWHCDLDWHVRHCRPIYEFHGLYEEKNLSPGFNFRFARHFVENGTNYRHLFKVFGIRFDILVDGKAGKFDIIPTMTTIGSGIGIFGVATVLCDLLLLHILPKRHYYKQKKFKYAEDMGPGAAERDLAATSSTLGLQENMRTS
The conditions noted are these: cited from earlier work.

The target of series [3] is P2Y2 (Homo sapiens, UniProt P41231). The following applies: cited from earlier work.
Sequence of P2Y2 (P41231 whole entry, species assumed): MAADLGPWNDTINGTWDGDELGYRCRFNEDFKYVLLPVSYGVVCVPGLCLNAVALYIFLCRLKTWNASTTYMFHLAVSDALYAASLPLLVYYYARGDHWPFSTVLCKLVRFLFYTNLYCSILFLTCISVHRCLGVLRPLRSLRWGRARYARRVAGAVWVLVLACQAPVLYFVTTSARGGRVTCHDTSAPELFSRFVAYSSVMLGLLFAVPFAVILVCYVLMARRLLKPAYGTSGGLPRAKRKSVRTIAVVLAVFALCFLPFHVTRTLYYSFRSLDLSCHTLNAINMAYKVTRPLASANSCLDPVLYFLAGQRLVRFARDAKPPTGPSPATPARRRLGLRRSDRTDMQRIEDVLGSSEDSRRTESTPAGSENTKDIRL
Series [4] deals with P2Y4 (Homo sapiens, UniProt P51582). The following applies: cited from earlier work.
Sequence of P2Y4 (P51582 whole entry, species assumed): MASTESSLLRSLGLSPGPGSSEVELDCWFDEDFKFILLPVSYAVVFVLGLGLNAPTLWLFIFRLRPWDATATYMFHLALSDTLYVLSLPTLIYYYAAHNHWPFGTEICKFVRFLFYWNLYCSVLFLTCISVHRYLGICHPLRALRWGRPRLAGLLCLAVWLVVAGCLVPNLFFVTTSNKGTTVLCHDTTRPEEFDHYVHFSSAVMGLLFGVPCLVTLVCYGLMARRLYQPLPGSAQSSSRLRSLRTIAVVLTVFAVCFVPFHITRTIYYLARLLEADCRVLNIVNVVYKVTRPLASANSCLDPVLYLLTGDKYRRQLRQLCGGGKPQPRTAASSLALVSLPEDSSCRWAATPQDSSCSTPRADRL
The target in series [5] is P2Y6 (Homo sapiens, UniProt Q15077). The conditions noted are these: cited from earlier work.
Sequence of P2Y6 (Q15077 whole entry, species assumed): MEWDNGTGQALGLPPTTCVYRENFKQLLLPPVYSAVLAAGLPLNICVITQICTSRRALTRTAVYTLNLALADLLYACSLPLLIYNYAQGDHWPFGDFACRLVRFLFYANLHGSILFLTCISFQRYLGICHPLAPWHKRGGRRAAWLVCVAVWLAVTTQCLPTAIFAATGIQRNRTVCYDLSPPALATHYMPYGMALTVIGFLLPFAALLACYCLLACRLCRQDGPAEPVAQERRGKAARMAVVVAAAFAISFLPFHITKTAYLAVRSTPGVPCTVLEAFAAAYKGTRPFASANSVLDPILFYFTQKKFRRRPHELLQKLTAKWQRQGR
Series [6] has as its target T2, adenylyl cyclase-linked P2Y receptor in C6 glioma cells (Rattus norvegicus, UniProt Q9EPX4).
T2 construct: at the adenylyl cyclase-linked P2Y receptor in C6 glioma cells; host or cells: C6 glioma cells (endogenous receptor)
The conditions noted are these: cited from earlier work.

Series [7] relates to novel avian P2Y receptor that inhibits adenylyl cyclase. The conditions noted are these: cited from earlier work.

T2 sequence (Q9EPX4 whole entry): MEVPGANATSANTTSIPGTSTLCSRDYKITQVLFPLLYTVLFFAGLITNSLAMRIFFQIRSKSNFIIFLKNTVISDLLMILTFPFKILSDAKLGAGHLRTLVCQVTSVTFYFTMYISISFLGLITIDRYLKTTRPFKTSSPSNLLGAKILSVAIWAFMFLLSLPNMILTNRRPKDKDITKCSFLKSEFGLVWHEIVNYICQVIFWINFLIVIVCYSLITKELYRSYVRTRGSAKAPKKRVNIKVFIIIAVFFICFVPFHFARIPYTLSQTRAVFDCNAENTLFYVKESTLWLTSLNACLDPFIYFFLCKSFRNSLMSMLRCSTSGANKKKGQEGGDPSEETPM

As for `CNc1ncnc2c1ncn2[C@H]1C[C@H](OP(=O)(O)O)[C@@H](COP(=O)(O)O)O1` [Compound 1a, N6-methyl-2′-deoxyadenosine-3′,5′-bisphosphate], in series [1], the Kb (in general, the affinity of an antagonist, worked out from how it opposes an agonist) was approximately 100 nM. Further, the EC50 (in general, the midpoint of the concentration-response curve) in series [2] is 1200 nM. The “activity at P2Y2” value in series [3] is “inactive”. In addition, the “activity at P2Y4” value in series [4] is “inactive”. Besides, in series [5], the “activity at P2Y6” value is “inactive”. Besides, the “activity at adenylyl cyclase-linked P2Y receptor in C6 glioma cells” value in series [6] was “inactive”. Further, in series [7], the “activity at novel avian P2Y receptor” value was “inactive”.
